Values after ≈ are worked out from the molar mass of the structure shown.
test system: HL-60; assay: Tested in vitro for the anticancer activity against HL-60 leukemia cells; type: functional, cell-based; conditions: Homo sapiens

SMILES | IC50 [µg/mL]
CC(=O)O[C@H]1C(=O)[C@@]2(C)[C@H]([C@H](OC(=O)c3ccccc3)[C@]3(O)C[C@H](OC(=O)[C@H](O)[C@@H](NC(=O)c4ccccc4)c4ccccc4)C(C)=C1C3(C)C)[C@]1(OC(C)=O)CO[C@@H]1C[C@@H]2O [PACLITAXEL] | 0.001 (≈ 0.00117 µM)
CC(=O)O[C@H]1C(=O)[C@@]2(C)[C@H]([C@H](OC(=O)c3ccccc3)[C@]3(O)C[C@H](OC(=O)[C@H](OP(=O)(O)OCCN)[C@@H](NC(=O)c4ccccc4)c4ccccc4)C(C)=C1C3(C)C)[C@]1(OC(C)=O)CO[C@@H]1C[C@@H]2O | 0.8 (≈ 0.819 µM)
CC(=O)O[C@H]1C(=O)[C@@]2(C)[C@H]([C@H](OC(=O)c3ccccc3)[C@]3(O)C[C@H](OC(=O)[C@H](OP(=O)(O)OCCCN)[C@@H](NC(=O)c4ccccc4)c4ccccc4)C(C)=C1C3(C)C)[C@]1(OC(C)=O)CO[C@@H]1C[C@@H]2O | 4 (≈ 4.04 µM)
CC(=O)O[C@H]1C(=O)[C@@]2(C)[C@H]([C@H](OC(=O)c3ccccc3)[C@]3(O)C[C@H](OC(=O)[C@H](OP(=O)(O)OCCCCN)[C@@H](NC(=O)c4ccccc4)c4ccccc4)C(C)=C1C3(C)C)[C@]1(OC(C)=O)CO[C@@H]1C[C@@H]2O | 0.3 (≈ 0.299 µM)

Source: ChEMBL document CHEMBL1151549, “Design and synthesis of new taxol-containing aminophosphates as protaxols” (Bioorg Med Chem Lett, 1997)
